According to the supplement of paper PMC11208160:

Test: recombinant UMI read abundance after kanamycin selection (control-corrected) (log10(CPM+1)); higher = more efficient recombination; extreme values may be limits of the assay; sequences stand for … in AGTGCAGAGAAAATCGGCCAGTTTTCTCTGCCTGCAGTCCGCATGCCGTGGGACCCCTTGGGTTCTAACCTGTTGCCTAGATTTATGCAGCGGACTGCCTTTCTCCCAAAGTGATAAACCGG…AGGTTGGTTTCACT; site = the 11-nt donor
Description: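 Pooled E. coli donor-specificity screen for the IS621 bridge recombinase. Each library member carries a reprogrammed 11-nt donor and a full-length LE bridge RNA expressed in cis from the natural promoter, with a paired donor-binding loop (8-nt LDG + 4-nt RDG) and a target-binding loop fixed to T5. It is co-electroporated with a T5 target plasmid; recombinase is induced with 0.07 mM IPTG and recombinants are selected on kanamycin. UMIs are counted as CPM, averaged over two biological replicates and corrected by the unselected control. Molecule = full bridge RNA written as DNA, built from the T5 scaffold: LDG = donor specificity nt 1-8, RDG = reverse complement of nt 8-11.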
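Also: IS621 bridge recombinase in Escherichia coli cells against a fixed T5 target plasmid.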

Sequence | recombinant UMI read abundance (log10)
AATAAGACATGGACCGGTTTTCCCGGTAATCCGTATTTGAA (site AATAAGACTTT) | 1.86
AATAGAACATGGACCGGTTTTCCCGGTAATCCGTATTTGAG (site AATAGAACTCT) | 2
AATAGAACATGGACCGGTTTTCCCGGTAATCCGTATTTGAG (site ACTAGAACTCT) | 1.6
AATAGAACATGGACCGGTTTTCCCGGTAATCCGTATTTGAG (site AGTAGAACTCT) | 0.412
AATAGAACATGGACCGGTTTTCCCGGTAATCCGTATTTGAG (site ATTAGAACTCT) | 0.329
AATAGGACATGGACCGGTTTTCCCGGTAATCCGTATTTGCG (site AATAGGACTCG) | 1.97
AATAGTGCATGGACCGGTTTTCCCGGTAATCCGTATTTGGT (site AATAGTGCTAC) | 1.23
AATAGTGCATGGACCGGTTTTCCCGGTAATCCGTATTTGGT (site ACTAGTGCTAC) | 0.687
AATAGTGCATGGACCGGTTTTCCCGGTAATCCGTATTTGGT (site AGTAGTGCTAC) | 0.602
AATAGTGCATGGACCGGTTTTCCCGGTAATCCGTATTTGGT (site ATTAGTGCTAC) | 0.53
AATATAACATGGACCGGTTTTCCCGGTAATCCGTATTTGCT (site AATATAACTAG) | 1.99
AATATAACATGGACCGGTTTTCCCGGTAATCCGTATTTGCT (site AATCTAACTAG) | 0.615
AATATAACATGGACCGGTTTTCCCGGTAATCCGTATTTGCT (site AATGTAACTAG) | 1.47
AATATAACATGGACCGGTTTTCCCGGTAATCCGTATTTGCT (site AATTTAACTAG) | 0.0427
AATCATGCATGGACCGGTTTTCCCGGTAATCCGTATTTGGA (site AATAATGCTTC) | 0.666
AATCATGCATGGACCGGTTTTCCCGGTAATCCGTATTTGGA (site AATCATGCTTC) | 0.584
AATCATGCATGGACCGGTTTTCCCGGTAATCCGTATTTGGA (site AATGATGCTTC) | 0.351
AATCATGCATGGACCGGTTTTCCCGGTAATCCGTATTTGGA (site AATTATGCTTC) | 0.636
AATCCATCATGGACCGGTTTTCCCGGTAATCCGTATTTGTA (site AATCCATCTTA) | 1.06
AATCTCACATGGACCGGTTTTCCCGGTAATCCGTATTTGGA (site AATCTCACTTC) | 0.341
AATCTGGCATGGACCGGTTTTCCCGGTAATCCGTATTTGTA (site AATCTGGCTTA) | 0.472
AATGAGACATGGACCGGTTTTCCCGGTAATCCGTATTTGGT (site AATGAGACTAC) | 1.58

Sequence | recombinant UMI read abundance (log10)
AATGAGACATGGACCGGTTTTCCCGGTAATCCGTATTTGGT (site ACTGAGACTAC) | 0.724
AATGAGACATGGACCGGTTTTCCCGGTAATCCGTATTTGGT (site AGTGAGACTAC) | 1.41
AATGAGACATGGACCGGTTTTCCCGGTAATCCGTATTTGGT (site ATTGAGACTAC) | 0.678
AATGATGCATGGACCGGTTTTCCCGGTAATCCGTATTTGGA (site AATAATGCTTC) | 1.08
AATGATGCATGGACCGGTTTTCCCGGTAATCCGTATTTGGA (site AATCATGCTTC) | 1.01
AATGATGCATGGACCGGTTTTCCCGGTAATCCGTATTTGGA (site AATGATGCTTC) | 1.06
AATGATGCATGGACCGGTTTTCCCGGTAATCCGTATTTGGA (site AATTATGCTTC) | 0.561
AATGCAACATGGACCGGTTTTCCCGGTAATCCGTATTTGCT (site AATGAAACTAG) | 0
AATGCAACATGGACCGGTTTTCCCGGTAATCCGTATTTGCT (site AATGCAACTAG) | 0.00461
AATGCAACATGGACCGGTTTTCCCGGTAATCCGTATTTGCT (site AATGGAACTAG) | 0
AATGCAACATGGACCGGTTTTCCCGGTAATCCGTATTTGCT (site AATGTAACTAG) | 0
AATGCAGCATGGACCGGTTTTCCCGGTAATCCGTATTTGGG (site AATGCAGCTCC) | 0.00829
AATGCGTCATGGACCGGTTTTCCCGGTAATCCGTATTTGAC (site AATGAGTCTGT) | 0
AATGCGTCATGGACCGGTTTTCCCGGTAATCCGTATTTGAC (site AATGCGTCTGT) | 2.03
AATGCGTCATGGACCGGTTTTCCCGGTAATCCGTATTTGAC (site AATGGGTCTGT) | 0
AATGCGTCATGGACCGGTTTTCCCGGTAATCCGTATTTGAC (site AATGTGTCTGT) | 0.269
AATGGGTCATGGACCGGTTTTCCCGGTAATCCGTATTTGAC (site AATGAGTCTGT) | 0.146
AATGGGTCATGGACCGGTTTTCCCGGTAATCCGTATTTGAC (site AATGCGTCTGT) | 0.826
AATGGGTCATGGACCGGTTTTCCCGGTAATCCGTATTTGAC (site AATGGGTCTGT) | 2.68
AATGGGTCATGGACCGGTTTTCCCGGTAATCCGTATTTGAC (site AATGTGTCTGT) | 0
AATGGTGCATGGACCGGTTTTCCCGGTAATCCGTATTTGGT (site AATGGTGCTAC) | 1.04
AATGTAACATGGACCGGTTTTCCCGGTAATCCGTATTTGCG (site AATGTAACTAG) | 0

Sequence | recombinant UMI read abundance (log10)
AATGTAACATGGACCGGTTTTCCCGGTAATCCGTATTTGCG (site AATGTAACTCG) | 1.48
AATGTAACATGGACCGGTTTTCCCGGTAATCCGTATTTGCG (site AATGTAACTGG) | 0
AATGTAACATGGACCGGTTTTCCCGGTAATCCGTATTTGCG (site AATGTAACTTG) | 0.00267
AATGTAACATGGACCGGTTTTCCCGGTAATCCGTATTTGTT (site AATGTAACTAA) | 0.321
AATGTAACATGGACCGGTTTTCCCGGTAATCCGTATTTGTT (site AATGTAACTAC) | 0.00716
AATGTAACATGGACCGGTTTTCCCGGTAATCCGTATTTGTT (site AATGTAACTAG) | 0.466
AATGTAACATGGACCGGTTTTCCCGGTAATCCGTATTTGTT (site AATGTAACTAT) | 0.0338
AATGTACCATGGACCGGTTTTCCCGGTAATCCGTATTTGCT (site AATGTAACTAG) | 0
AATGTACCATGGACCGGTTTTCCCGGTAATCCGTATTTGCT (site AATGTACCTAG) | 0
AATGTACCATGGACCGGTTTTCCCGGTAATCCGTATTTGCT (site AATGTAGCTAG) | 0.00499
AATGTACCATGGACCGGTTTTCCCGGTAATCCGTATTTGCT (site AATGTATCTAG) | 0.926
AATGTGTCATGGACCGGTTTTCCCGGTAATCCGTATTTGAG (site AATGTGTCTAT) | 1.43
AATGTGTCATGGACCGGTTTTCCCGGTAATCCGTATTTGAG (site AATGTGTCTCT) | 1.82
AATGTGTCATGGACCGGTTTTCCCGGTAATCCGTATTTGAG (site AATGTGTCTGT) | 0.801
AATGTGTCATGGACCGGTTTTCCCGGTAATCCGTATTTGAG (site AATGTGTCTTT) | 0.832
AATGTGTCATGGACCGGTTTTCCCGGTAATCCGTATTTGAT (site AATGTGTCTAT) | 1.66
AATGTGTCATGGACCGGTTTTCCCGGTAATCCGTATTTGAT (site AATGTGTCTCT) | 0.003
AATGTGTCATGGACCGGTTTTCCCGGTAATCCGTATTTGAT (site AATGTGTCTGT) | 0
AATGTGTCATGGACCGGTTTTCCCGGTAATCCGTATTTGAT (site AATGTGTCTTT) | 0.0089
AATTAGCCATGGACCGGTTTTCCCGGTAATCCGTATTTGAG (site AATTAGCCTCT) | 0.017
AATTATCCATGGACCGGTTTTCCCGGTAATCCGTATTTGGA (site AATTATACTTC) | 0.126
